Source: patent US20200113910A1, “TRIAZINETRIONE DERIVATIVES AND THEIR USE AS MODULATORS OF NEUROTROPHIN RECEPTOR AND RECEPTOR TYROSINE KINASES” (ALZECURE PHARMA AB, priority 2016, published 2020)

Columns and labels:
TrkB = target: T1, TrkB (Homo sapiens, UniProt Q16620); test: Enzyme Fragment Complementation cell-based assay, TrkB; conditions: for TrkB efficacy, % stimulation over 10 ng/mL of ligand: U2OS-cells over-expressing TrkB, ligand BDNF 10 ng/mL
T1 construct: expressed in transfected cells; host or cells: U2OS
T1 sequence (Q16620 32-822): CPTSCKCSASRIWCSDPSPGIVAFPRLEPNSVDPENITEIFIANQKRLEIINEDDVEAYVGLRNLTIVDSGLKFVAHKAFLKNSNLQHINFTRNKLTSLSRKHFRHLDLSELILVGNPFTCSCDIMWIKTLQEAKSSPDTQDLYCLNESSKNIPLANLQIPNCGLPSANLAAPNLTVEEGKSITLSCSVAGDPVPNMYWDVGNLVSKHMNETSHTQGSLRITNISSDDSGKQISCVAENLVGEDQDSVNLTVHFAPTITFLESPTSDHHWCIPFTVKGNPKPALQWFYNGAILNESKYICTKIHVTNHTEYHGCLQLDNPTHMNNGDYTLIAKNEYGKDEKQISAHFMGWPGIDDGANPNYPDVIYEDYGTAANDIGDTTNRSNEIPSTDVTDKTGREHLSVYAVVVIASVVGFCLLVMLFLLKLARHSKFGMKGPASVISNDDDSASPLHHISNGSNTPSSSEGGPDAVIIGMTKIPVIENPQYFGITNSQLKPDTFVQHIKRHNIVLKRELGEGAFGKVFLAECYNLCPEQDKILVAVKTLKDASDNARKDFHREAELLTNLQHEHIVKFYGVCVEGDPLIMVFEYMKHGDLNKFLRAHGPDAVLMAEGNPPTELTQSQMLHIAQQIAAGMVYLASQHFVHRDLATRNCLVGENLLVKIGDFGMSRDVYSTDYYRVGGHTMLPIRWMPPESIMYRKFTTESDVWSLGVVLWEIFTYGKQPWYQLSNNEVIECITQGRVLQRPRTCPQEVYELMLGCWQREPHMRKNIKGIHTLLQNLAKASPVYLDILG
Excerpt: (§1) A high throughput cell-based screen has been used to identify positive modulators of TrkA, TrkB and TrkC. The screen involves the use of cell-based assay overexpressing TrkA, TrkB or TrkC. The purpose of the assay is to identify compounds that modulate neurotrophin signalling (Forsell et al 2012). The assay can be used in inhibitor mode using a high concentration of ligand, in modulator mode using an intermediate concentration and in agonist mode using a low concentration of ligand.
(§2) The assay uses Enzyme Fragment Complementation (EFC) technique, which is a proximity-based assay. Briefly, cells used in this assay over-express two fusion proteins, i.e. the receptor, which can be either one of TrkA, TrkB, TrkC, IGF1R or FGFR1, fused to a small peptide of 8-galactosidase and an adaptor protein, i.e. SHC1 (or any other Trk-adaptor protein) fused to the major part of 8-galactosidase. […] The proximity between the small activating peptide on the receptor and the major part of 8-galactosidase on the adaptor protein leads to an active 8-galactosidase enzyme. The activation of the receptor is quantified by measuring the amount of active 8-galactosidase by its conversion of a non-luminescent substrate into a luminescent product.
(§3) U2OS-cells, over-expressing TrkA or TrkB or TrkC, are plated in 96- or 384-well plates and incubated overnight. Alternatively, cryopreserved HEK293-cells expressing IGFR1 or cryopreserved U2OS-cells expressing FGFR1 were plated in 96- or 384-well plates. On the following day, test compound was pre-mixed with ligand (NGF, BDNF, NT-3, IGF-1 or basic fibroblast growth factor (bFGF(FGF-2))) and the ligand-compound mixture is then added to the cells to yield a final ligand concentration of typically 10 ng/mL (or as indicated in FIGS. 3 and 4). After 3 hours of incubation at room temperature, the incubation is stopped by the addition of a β-galactosidase substrate mixture containing detergents. The substrate mixture is incubated for 60 minutes at ambient temperature. The luminescence is thereafter read by the use of a plate reader.
(§4) The potency is expressed as EC50 (pM) and the efficacy as % stimulation over 10 ng/mL of ligand . The ligands used was: NGF (for TrkA assay), BDNF (for TrkB assay), NT-3 (for TrkC assay) bFGF (for FGFR1 assay), IGF-1 (for IGFR1 assay), respectively.

TrkA = target: T2, TrkA (Homo sapiens, UniProt P04629); test: Enzyme Fragment Complementation cell-based assay, TrkA; conditions: U2OS-cells over-expressing TrkA; ligand NGF 10 ng/mL
T2 construct: expressed in transfected cells; host or cells: U2OS
T2 sequence (P04629 33-796): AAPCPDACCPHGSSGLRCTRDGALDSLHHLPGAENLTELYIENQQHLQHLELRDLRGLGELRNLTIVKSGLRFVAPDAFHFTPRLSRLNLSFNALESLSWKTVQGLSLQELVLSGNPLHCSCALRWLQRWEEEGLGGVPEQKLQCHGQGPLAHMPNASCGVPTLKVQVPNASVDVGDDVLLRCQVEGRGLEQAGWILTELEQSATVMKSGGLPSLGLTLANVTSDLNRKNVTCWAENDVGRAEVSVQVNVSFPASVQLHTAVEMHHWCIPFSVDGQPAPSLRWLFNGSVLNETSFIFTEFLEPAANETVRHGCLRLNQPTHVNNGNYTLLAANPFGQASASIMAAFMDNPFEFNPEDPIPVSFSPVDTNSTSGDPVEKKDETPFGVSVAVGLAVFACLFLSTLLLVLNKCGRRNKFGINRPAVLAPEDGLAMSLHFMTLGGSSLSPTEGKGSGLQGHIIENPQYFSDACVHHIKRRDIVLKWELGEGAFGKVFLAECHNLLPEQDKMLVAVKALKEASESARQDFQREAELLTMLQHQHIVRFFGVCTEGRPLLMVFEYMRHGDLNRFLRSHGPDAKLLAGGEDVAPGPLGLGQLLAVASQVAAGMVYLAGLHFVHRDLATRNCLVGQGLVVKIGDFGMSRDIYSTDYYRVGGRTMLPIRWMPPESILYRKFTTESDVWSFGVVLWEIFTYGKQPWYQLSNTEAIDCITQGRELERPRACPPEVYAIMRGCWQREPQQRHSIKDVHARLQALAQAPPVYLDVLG
Excerpt: as §1, §2, §3, §4

TrkC = target: T3, TrkC (Homo sapiens, UniProt Q16288); test: Enzyme Fragment Complementation cell-based assay, TrkC; conditions: U2OS-cells over-expressing TrkC; ligand NT-3 10 ng/mL
T3 construct: expressed in transfected cells; host or cells: U2OS
T3 sequence (Q16288 32-839): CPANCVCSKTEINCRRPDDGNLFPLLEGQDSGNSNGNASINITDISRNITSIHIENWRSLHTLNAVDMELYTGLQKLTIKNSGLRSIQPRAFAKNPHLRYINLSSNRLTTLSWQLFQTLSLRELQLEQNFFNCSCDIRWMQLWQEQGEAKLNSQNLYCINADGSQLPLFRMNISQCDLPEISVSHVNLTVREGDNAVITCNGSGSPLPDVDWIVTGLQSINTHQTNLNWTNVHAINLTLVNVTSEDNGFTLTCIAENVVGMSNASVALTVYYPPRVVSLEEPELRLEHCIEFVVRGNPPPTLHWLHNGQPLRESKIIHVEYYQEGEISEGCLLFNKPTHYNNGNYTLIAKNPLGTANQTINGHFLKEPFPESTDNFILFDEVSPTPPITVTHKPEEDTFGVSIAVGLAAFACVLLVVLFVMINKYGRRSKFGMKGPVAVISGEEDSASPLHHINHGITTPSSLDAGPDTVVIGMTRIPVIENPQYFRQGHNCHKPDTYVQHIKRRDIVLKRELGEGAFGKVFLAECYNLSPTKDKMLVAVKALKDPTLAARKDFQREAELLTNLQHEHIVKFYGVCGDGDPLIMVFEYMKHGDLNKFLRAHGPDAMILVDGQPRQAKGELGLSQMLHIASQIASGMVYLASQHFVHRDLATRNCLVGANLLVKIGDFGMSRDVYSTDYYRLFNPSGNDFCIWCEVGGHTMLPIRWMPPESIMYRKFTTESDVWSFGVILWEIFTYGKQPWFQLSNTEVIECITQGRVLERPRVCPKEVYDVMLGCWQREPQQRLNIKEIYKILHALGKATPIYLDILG
Excerpt: as §1, §2, §3, §4

[1] = test system: cellular prion protein (PrP^C); conditions: Suzuki et al., FEBS Open Bio 2016; cited from earlier work
[2] = test system: ephrin type-B receptor 2 (EphB2); conditions: Suzuki et al., FEBS Open Bio 2016; cited from earlier work
IGF1R = target: T4, IGF1R (Homo sapiens, UniProt P08069); test: Enzyme Fragment Complementation cell-based assay, IGF1R; conditions: HEK293-cells expressing IGFR1; ligand IGF-1 10 ng/mL
T4 construct: expressed in transfected cells; host or cells: HEK293 (cryopreserved)
T4 sequence (P08069 31-736 limits assumed): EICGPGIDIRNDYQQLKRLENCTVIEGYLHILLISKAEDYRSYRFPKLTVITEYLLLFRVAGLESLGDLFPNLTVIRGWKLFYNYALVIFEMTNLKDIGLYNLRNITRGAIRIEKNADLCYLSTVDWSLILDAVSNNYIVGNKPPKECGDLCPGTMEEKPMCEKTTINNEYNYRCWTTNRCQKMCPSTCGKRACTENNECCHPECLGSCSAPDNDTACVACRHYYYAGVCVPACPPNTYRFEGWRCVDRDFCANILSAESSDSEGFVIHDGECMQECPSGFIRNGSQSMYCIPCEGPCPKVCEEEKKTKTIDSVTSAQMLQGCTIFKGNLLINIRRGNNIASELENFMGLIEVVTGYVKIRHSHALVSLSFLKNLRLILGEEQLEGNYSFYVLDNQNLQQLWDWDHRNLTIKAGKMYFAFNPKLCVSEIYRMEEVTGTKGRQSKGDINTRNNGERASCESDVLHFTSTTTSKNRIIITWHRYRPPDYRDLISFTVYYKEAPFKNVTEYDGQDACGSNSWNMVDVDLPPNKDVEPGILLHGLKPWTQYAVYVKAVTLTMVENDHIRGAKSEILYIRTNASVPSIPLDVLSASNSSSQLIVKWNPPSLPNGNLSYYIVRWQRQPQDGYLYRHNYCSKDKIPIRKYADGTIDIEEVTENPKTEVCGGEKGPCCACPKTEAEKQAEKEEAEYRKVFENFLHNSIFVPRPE
T4 sequence (P08069 741-1367 limits assumed): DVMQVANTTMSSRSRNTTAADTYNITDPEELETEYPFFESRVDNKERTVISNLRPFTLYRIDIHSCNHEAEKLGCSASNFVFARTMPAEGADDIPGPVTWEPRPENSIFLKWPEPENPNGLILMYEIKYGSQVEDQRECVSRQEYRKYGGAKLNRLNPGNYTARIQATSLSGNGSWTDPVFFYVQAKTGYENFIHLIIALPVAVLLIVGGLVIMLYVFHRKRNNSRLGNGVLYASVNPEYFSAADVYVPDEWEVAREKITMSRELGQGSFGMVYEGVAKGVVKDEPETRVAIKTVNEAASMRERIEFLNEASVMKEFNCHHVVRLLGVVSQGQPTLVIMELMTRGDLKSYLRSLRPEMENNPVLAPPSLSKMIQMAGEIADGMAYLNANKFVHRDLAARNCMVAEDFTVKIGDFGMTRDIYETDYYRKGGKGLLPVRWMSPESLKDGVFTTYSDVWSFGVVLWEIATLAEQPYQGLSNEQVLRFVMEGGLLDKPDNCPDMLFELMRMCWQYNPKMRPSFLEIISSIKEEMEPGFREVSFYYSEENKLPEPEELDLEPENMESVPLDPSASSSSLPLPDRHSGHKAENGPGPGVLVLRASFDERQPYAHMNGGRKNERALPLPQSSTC
Excerpt: as §2, §3, §4

FGFR1 = target: T5, FGFR1 (Homo sapiens, UniProt P11362); test: Enzyme Fragment Complementation cell-based assay, FGFR1; conditions: U2OS-cells expressing FGFR1; ligand bFGF 10 ng/mL
T5 construct: expressed in transfected cells; host or cells: U2OS (cryopreserved)
T5 sequence (P11362 22-822): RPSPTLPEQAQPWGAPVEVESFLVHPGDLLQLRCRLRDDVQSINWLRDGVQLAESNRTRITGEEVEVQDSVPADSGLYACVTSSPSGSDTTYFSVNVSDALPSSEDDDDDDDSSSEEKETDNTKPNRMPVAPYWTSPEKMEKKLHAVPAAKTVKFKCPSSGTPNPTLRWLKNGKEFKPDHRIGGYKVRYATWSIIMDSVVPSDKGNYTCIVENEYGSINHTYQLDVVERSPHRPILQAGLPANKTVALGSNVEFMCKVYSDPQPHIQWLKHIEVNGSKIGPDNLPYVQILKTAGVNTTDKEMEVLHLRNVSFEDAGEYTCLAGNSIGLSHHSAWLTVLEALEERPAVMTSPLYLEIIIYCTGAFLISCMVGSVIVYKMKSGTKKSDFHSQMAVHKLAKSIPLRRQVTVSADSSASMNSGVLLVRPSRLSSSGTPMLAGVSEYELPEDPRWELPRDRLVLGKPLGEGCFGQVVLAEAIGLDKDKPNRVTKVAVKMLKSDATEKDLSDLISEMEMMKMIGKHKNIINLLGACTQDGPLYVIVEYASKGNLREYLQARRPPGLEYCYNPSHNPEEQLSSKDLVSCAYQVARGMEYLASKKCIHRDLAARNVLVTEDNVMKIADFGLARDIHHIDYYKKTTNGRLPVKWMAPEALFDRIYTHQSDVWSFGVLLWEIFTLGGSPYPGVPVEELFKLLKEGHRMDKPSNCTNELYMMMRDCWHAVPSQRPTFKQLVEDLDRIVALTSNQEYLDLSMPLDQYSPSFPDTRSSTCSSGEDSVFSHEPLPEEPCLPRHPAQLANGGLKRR
Excerpt: as §2, §3, §4

C57/BI6 mice [3] = test: Passive avoidance task, scopolamine-treated mice (Example 1); format: in vivo; conditions: 20 mg/kg i.p. once per day for 4 days; scopolamine 0.3 mg/kg s.c.; FIG. 1
Description: (§5) Passive avoidance (PA) is an aversive learning task based on classical (Pavlovian) fear conditioning that allows for analysis of both facilitation and impairment of memory function by adjusting the unconditioned stimulus, i.e. the electrical foot shock. Commonly a cognitive-impairing agent is administered to the animals to mimic the neurochemical disturbances present in various cognitive disorders e.g. cholinergic (scopolamine) and glutamatergic (MK-801) deficits.
(§6) Prior to testing, the animals are brought to the experimental room where they were allowed to habituate for 60 min. The test is conducted using a modified shuttle box with two communicating compartments of equal size with a small sliding door built into the separating wall and a stainless steel bar floor. One of the compartments is not illuminated and thus black whereas the other compartment (the light one) is illuminated by an electric bulb, installed on the top of a plexiglass cover. The PA training is conducted in a single session. […] Latency to cross over into the dark compartment (training latency) is recorded. […] The latency to cross over into the dark compartment with all four feet is measured (retention latency) as well as time in bright compartment and a number of other relevant parameters (e.g. number of visits in the dark compartment). […]

C57/BI6 mice [4] = test: Passive avoidance task, MK-801-treated mice (Example 2); format: in vivo; conditions: different doses i.p. once per day for 4 days; MK-801 0.3 mg/kg s.c.; FIG. 2
Description: as §5, §6

[5] = FIG. 3, cells stimulated with or without BDNF

With `Cc1cc(-n2c(=O)[nH]c(=O)n(-c3ccccc3)c2=O)ccc1Oc1ccc(SC(F)(F)F)cc1` [Compound 5, 1-(3-methyl-4-{4-[(trifluoromethyl)sulfanyl]phenoxy}phenyl)-3-phenyl-1,3,5-triazinane-2,4,6-trione] the “TrkB efficacy, % stimulation over 10 ng/mL of ligand” value (“TrkB efficacy, % stimulation” below) (TrkB) was 210%, the “TrkA efficacy, % stimulation over 10 ng/mL of ligand” value (“TrkA efficacy, % stimulation” for short) (TrkA) was 112% and the “TrkC efficacy, % stimulation over 10 ng/mL of ligand” value (from here on “TrkC efficacy, % stimulation”) (TrkC) was 84%.
For `Cc1cc(-n2c(=O)[nH]c(=O)n(C)c2=O)ccc1Oc1ccc(SC(F)(F)F)cc1` [Compound 1, 1-methyl-3-(3-methyl-4-{4-[(trifluoromethyl)sulfanyl]phenoxy}phenyl)-1,3,5-triazinane-2,4,6-trione], the “decrease of activity at the two highest concentrations tested, TrkB expressing cells” value (from here on “decrease of activity”) (TrkB; [5]) was “significantly decreases”, the “dose-response curve with BDNF as ligand in TrkB expressing cells” value (TrkB; [5]) was “no clear dose-response curve” and the “TrkB efficacy, % stimulation” value (TrkB) was 124%. For the same compound, the “inhibitory activity at the cellular prion protein (PrP^C)” value [1] was “lack of similar inhibitory activity”, the “inhibition of binding of β-amyloid oligomers to EphB2” value [2] was 30% and the “IGF1R efficacy, % stimulation over 10 ng/mL of ligand” value (“IGF1R efficacy, % stimulation” for short) (IGF1R) was 83%. The “TrkA efficacy, % stimulation” value (TrkA) was 109%, the “FGFR1 efficacy, % stimulation over 10 ng/mL of ligand” value (from here on “FGFR1 efficacy, % stimulation”) (FGFR1) was 73% and the “retention latency in passive avoidance task (cognitive function)” value (C57/BI6 mice [3]) was “increased retention latency”. The “TrkC efficacy, % stimulation” value (TrkC) was 87%.
In the case of `Cc1cc(-n2c(=O)[nH]c(=O)n(C)c2=O)ccc1Oc1ccc(S(=O)(=O)C(F)(F)F)cc1` [Compound 2, 1-methyl-3-[3-methyl-4-(4-trifluoromethanesulfonylphenoxy)phenyl]-1,3,5-triazinane-2,4,6-trione], the “decrease of activity” value (TrkB; [5]) is reported as “not observed”, the “TrkB efficacy, % stimulation” value (TrkB) is reported as 232% and the “total time spent in bright compartment in passive avoidance task (cognitive function)” value (C57/BI6 mice [4]) is reported as “increased time spent in the bright area”. For the same compound, the “IGF1R efficacy, % stimulation” value (IGF1R) was 25%, the “TrkA efficacy, % stimulation” value (TrkA) was 138% and the “FGFR1 efficacy, % stimulation” value (FGFR1) was 43%. For the same compound, the “TrkC efficacy, % stimulation” value (TrkC) was 70%.
For `Cc1cc(-n2c(=O)[nH]c(=O)n(C)c2=O)ccc1Oc1ccc([S+]([O-])C(F)(F)F)cc1` (centres unmarked) [Compound 3, 1-methyl-3-[3-methyl-4-(4-trifluoromethanesulfinylphenoxy)phenyl]-1,3,5-triazinane-2,4,6-trione], the “decrease of activity” value (TrkB; [5]) was “not observed”, the “TrkB efficacy, % stimulation” value (TrkB) was 196% and the “IGF1R efficacy, % stimulation” value (IGF1R) was 109%. The “TrkA efficacy, % stimulation” value (TrkA) was 143%, the “FGFR1 efficacy, % stimulation” value (FGFR1) was 102% and the “TrkC efficacy, % stimulation” value (TrkC) was 74%.
In the case of `Cc1cc(-n2c(=O)[nH]c(=O)n(-c3ccccc3)c2=O)ccc1Oc1ccc([S+]([O-])C(F)(F)F)cc1` (centres unmarked) [Compound 4, 1-[3-methyl-4-(4-trifluoromethanesulfinylphenoxy)phenyl]-3-phenyl-1,3,5-triazinane-2,4,6-trione], the “TrkB efficacy, % stimulation” value (TrkB) is reported as 217%, the “TrkA efficacy, % stimulation” value (TrkA) is reported as 128% and the “TrkC efficacy, % stimulation” value (TrkC) is reported as 69%.
For `Cc1cc(-n2c(=O)[nH]c(=O)n(-c3ccccc3)c2=O)ccc1Oc1ccc(S(=O)(=O)C(F)(F)F)cc1` [Compound 6, 1-[-3-methyl-4-(4-trifluoromethanesulfonylphenoxy)phenyl]-3-phenyl-1,3,5-triazinane-2,4,6-trione], the “TrkB efficacy, % stimulation” value (TrkB) was 300%, the “TrkA efficacy, % stimulation” value (TrkA) was 147% and the “TrkC efficacy, % stimulation” value (TrkC) was 124%.
